This passage reports IC50 results from paper PMC7662397, “p-Cymene Complexes of Ruthenium(II) as Antitumor Agents” (Molecules, 2020).

Experiment [1] concerns HeLa cells. Description: MTT cytotoxicity assay, HeLa cells, 48 h. The settings on record: read-out: IC50 (μM) HeLa. The class given is cell-based, human. The source says: (§1) Human cervical cancer cells (HeLa), human breast cancer cells (MCF-7) and green monkey kidney epithelial cells (BGM) were acquired from the American Type Culture Collection (ATCC, USA). The reason to choose human cervical cancer cells (HeLa) and human breast cancer cells (MCF-7) was to use a cell culture model that closely represented the human in vivo situation. The green monkey kidney epithelial cells (BGM) were chosen to compare cancer cells with healthy cells. Cell lines were maintained in Dulbecco’s Modified Eagle Medium (DMEM) with a low glucose content (1 g/L) supplemented with 10% (v/v) fetal bovine serum (FBS), 1 mM glutamax, 1% antibiotics (penicillin–streptomycin) and 1 mM pyruvate. In all cases, the cells were maintained at 37 °C in 5% CO2 atmosphere of 95% humidity. Cells were sub-cultured and the medium was changed once a week. In all cases, 0.25% trypsin, 0.25 mM ethylenediaminetetraacetic acid (EDTA) was used.
(§2) A total of 5 × 10^3 cells/well (200 µL of the culture medium described above) were seeded into a 96-well plate and incubated at 37 °C in a 5% CO2 and 95% humidity atmosphere for 24 h. […] Finally, a 200 µL aliquot of each of these last sixteen solutions was added to the wells. Cells were incubated at 37 °C for 48 h. The medium was then removed from the wells and 200 μL of MTT (3-(4,5-dimethylthiazol-2-yl)-2,5-diphenyltetrazolium bromide, 1 mg/mL final concentration) was added. After 4 h incubation in identical conditions, MTT was removed and 100 µL of dimethyl sulfoxide (DMSO) added. The absorbance at 560 nm was measured and recorded in a Fluostar Omega spectrophotometer.
(§3) Absorbances at each compound concentration were translated into inhibition percentages, I%, according to Equation (1):(1) I% = [1− AT/AC]×100 where AT and AC are the absorbance of treated and control cells, respectively.
(§4) The fitting was performed using GraphPad Prism v.8 software. All compounds were tested in three independent sets with triplicate points. The in vitro studies were performed in SACE (Support Service for Experimental Sciences, University of Murcia, Murcia, Spain) with biosecurity Level 2.
Background: Tetrazolium assays rely on reduction of a dye to a coloured formazan, in cell work by metabolically active cells.

Experiment [2] relates to MCF-7 cells. Kind of experiment: MTT cytotoxicity assay, MCF-7 cells, 48 h. The class given is cell-based, human. The settings on record: read-out: IC50 (μM) MCF-7.
Text: as §1, §2, §3, §4

The subject of experiment [3] is BGM cells. Kind of experiment: MTT cytotoxicity assay, BGM cells, 48 h. The class given is cell-based, green monkey. The settings on record: read-out: IC50 (μM) BGM.
Text: as §1, §2, §3, §4

Experiment [4] deals with HeLa cells. Also noted: method as in PMID 29880783. The settings on record: cisplatin value from the literature; cited from earlier work.
Experiment [5] deals with MCF-7 cells. To be noted: cisplatin value from the literature; cited from earlier work.
Experiment [6] relates to BGM cells. The settings on record: cisplatin value from the literature; cited from earlier work.
[7] abbreviates: human cervical cancer cells, 48 h exposure, MTT.
The mark [8] stands for this setting: human breast cancer cells, 48 h exposure, MTT.
The mark [9] stands for this setting: healthy green monkey kidney epithelial cells, 48 h exposure, MTT.
The mark [10] stands for this setting: MCF7, human breast cancer cells, 48 h exposure, MTT.
Setting [11] is: Chlorocebus sabaeus, BGM, healthy green monkey kidney epithelial cells, 48 h exposure, MTT.

Like-named read-outs stand apart in the source and are kept apart here.

By IC50 is commonly meant the concentration that gives 50% inhibition. In the case of `N#Cc1ccncc1` [4-cyanopyridine], the IC50 is greater than 250 µM in the experiment with HeLa cells [1] (Homo sapiens, 48 h); greater than 250 µM in the experiment on MCF-7 cells [2] (Homo sapiens, MCF7, 48 h); greater than 250 µM in the experiment on BGM cells [3] (Chlorocebus sabaeus, BGM, 48 h).

In the case of `Cc1ccc(C(C)C)cc1.Nc1ccc(O)cc1.[Cl][Ru][Cl]` [Complex III], the figures for the IC50 in the experiment with HeLa cells [1] (setting [7]), in the experiment with MCF-7 cells [2] (setting [8]) and with BGM cells [3] (setting [9]) were 171 ± 2.1 µM, 75.8 ± 2.3 µM and 59.6 ± 1.9 µM, respectively.

As for `Cc1ccc(C(C)C)cc1.Nc1ccccc1O.[Cl][Ru][Cl]` [Complex II], the IC50 in the experiment with HeLa cells [1] (setting [7]) was 82.9 ± 0.67 µM; with MCF-7 cells [2] (setting [8]), 28.7 ± 1.8 µM; with BGM cells [3] (setting [9]), greater than 250 µM.

With `Cc1ccc(C(C)C)cc1.[Cl][Ru][Cl].c1ccnnc1` [Complex IV], the IC50 in the experiment on HeLa cells [1] (setting [7]), in the experiment on MCF-7 cells [2] (setting [8]) and in the experiment on BGM cells [3] (setting [9]) was greater than 250 µM each time.

For the compound `Cc1ccc(C(C)C)cc1.N#Cc1ccncc1.[Cl][Ru][Cl]` [Complex I], the IC50 with HeLa cells [1] (setting [7]), with MCF-7 cells [2] (setting [8]) and in the experiment with BGM cells [3] (setting [9]) was greater than 250 µM throughout.

For the compound `Cc1ccc(C(C)C)cc1.F[P-](F)(F)(F)(F)F.Nc1ccccc1O.Nc1ccccc1O.[Cl][Ru+]` [Complex VI], the IC50 turned out to be 57.6 ± 4 µM in the experiment with HeLa cells [1] (setting [7]), 24.9 ± 4.3 µM in the experiment with MCF-7 cells [2] (setting [8]) and 95 ± 1.7 µM with BGM cells [3] (setting [9]).

As to `Nc1ccccc1O` [L = 2-aminophenol, 2-aminophenol], the figures for the IC50 in the experiment on HeLa cells [1] (setting [7]), in the experiment with MCF-7 cells [2] (setting [10]) and in the experiment with BGM cells [3] (setting [11]) were greater than 250 µM, 131.3 ± 0.15 µM and greater than 250 µM, respectively.

Turning to `Nc1ccc(O)cc1` [L = 4-aminophenol, 4-aminophenol], the IC50 with HeLa cells [1] (setting [7]), with MCF-7 cells [2] (setting [10]) and in the experiment with BGM cells [3] (setting [11]) was greater than 250 µM throughout.

Consider `c1ccnnc1` [Pyridazine], for which the IC50 in the experiment with HeLa cells [1] (setting [7]), in the experiment with MCF-7 cells [2] (setting [10]) and with BGM cells [3] (setting [11]) was greater than 250 µM each time.

Take `N.N.[Cl][Pt][Cl]` [cisplatin]: the IC50 is 67.6 ± 2 µM in the experiment on HeLa cells [4], 7.15 ± 0.1 µM in the experiment with MCF-7 cells [5] and 5.45 ± 0.2 µM with BGM cells [6].
